# Numbered stars: 1 amine (or outer) side, 2 acyl side, 3 side chain; on linkers, the order of the positions; unused ones are H or OH. Bridge positions count the residues as written; N and C are the ends. Peptide text beside a SMILES is read from it. * marks the point of attachment. X1 = O=C(O)CN1CCN(CC(=O)O)CCN(CC(=O)N2CCN(Cc3cc(C[*:1])cc(C[*:2])c3)CC2)CCN(CC(=O)O)CC1; Hexanoyl = CCCCCC(=O)*
# Experiments:
# [1] = biological target: norepinephrine transporter (h) (Homo sapiens, UniProt P23975); assay: biochemical; conditions: read-out: % Inhibition of Specific Binding
# [2] = biological target: M3 (h) (Homo sapiens, UniProt P20309); assay: biochemical; conditions: read-out: % Inhibition of Specific Binding
# M3 (h), sequence (P20309 whole entry): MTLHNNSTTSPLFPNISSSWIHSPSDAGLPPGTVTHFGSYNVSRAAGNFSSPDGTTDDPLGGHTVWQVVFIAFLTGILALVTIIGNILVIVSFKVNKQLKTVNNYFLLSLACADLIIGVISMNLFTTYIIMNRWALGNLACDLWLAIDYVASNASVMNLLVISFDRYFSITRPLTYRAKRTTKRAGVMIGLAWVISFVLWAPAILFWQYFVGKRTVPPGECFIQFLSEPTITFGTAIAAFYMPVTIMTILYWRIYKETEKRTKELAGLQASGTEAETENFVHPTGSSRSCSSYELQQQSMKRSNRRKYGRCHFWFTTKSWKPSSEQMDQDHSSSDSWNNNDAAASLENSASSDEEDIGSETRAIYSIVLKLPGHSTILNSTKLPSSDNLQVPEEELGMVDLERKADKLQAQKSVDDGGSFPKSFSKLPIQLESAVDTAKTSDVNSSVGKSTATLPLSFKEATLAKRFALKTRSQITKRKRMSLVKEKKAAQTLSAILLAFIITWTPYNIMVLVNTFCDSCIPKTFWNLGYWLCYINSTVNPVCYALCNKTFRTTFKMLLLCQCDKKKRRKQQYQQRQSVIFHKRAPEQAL
# [3] = biological target: CB2 (h) (Homo sapiens, UniProt P34972); assay: biochemical; conditions: read-out: % Inhibition of Specific Binding
# [4] = biological target: M1 (h) (Homo sapiens, UniProt P11229); assay: biochemical; conditions: read-out: % Inhibition of Specific Binding
# M1 (h), sequence (P11229 whole entry): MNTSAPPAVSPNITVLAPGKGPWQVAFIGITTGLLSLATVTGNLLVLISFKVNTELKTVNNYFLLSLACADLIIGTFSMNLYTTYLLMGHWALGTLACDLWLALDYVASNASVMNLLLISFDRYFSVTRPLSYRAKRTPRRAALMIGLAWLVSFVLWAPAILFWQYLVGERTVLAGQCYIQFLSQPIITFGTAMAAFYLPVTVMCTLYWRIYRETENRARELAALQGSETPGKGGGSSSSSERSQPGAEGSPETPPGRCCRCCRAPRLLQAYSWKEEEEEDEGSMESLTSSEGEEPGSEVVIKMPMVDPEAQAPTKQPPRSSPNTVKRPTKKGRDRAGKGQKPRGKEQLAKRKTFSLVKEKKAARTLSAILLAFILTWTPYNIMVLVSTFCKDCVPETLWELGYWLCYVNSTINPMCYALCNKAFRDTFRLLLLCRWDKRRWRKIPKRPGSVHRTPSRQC
# [5] = biological target: 5-HT1A (h) (Homo sapiens, UniProt P08908); assay: biochemical; conditions: read-out: % Inhibition of Specific Binding
# 5-HT1A (h), sequence (P08908 whole entry): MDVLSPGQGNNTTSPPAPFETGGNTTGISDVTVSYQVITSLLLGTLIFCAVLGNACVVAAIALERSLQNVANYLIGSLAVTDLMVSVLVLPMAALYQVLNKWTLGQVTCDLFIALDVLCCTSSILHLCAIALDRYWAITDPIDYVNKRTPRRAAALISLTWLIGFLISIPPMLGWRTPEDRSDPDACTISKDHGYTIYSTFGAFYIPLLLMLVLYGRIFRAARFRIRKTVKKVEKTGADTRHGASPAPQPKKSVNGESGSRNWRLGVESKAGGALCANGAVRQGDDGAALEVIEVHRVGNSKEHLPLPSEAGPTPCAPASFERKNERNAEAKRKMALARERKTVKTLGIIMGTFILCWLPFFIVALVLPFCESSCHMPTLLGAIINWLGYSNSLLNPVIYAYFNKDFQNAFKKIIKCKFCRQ
# [6] = biological target: T1, Ubiquitin carboxyl-terminal hydrolase 5 (Homo sapiens, UniProt P45974); assay: biochemical; conditions: read-out: Percentage inhibition (%)
# T1 sequence (P45974 1-858): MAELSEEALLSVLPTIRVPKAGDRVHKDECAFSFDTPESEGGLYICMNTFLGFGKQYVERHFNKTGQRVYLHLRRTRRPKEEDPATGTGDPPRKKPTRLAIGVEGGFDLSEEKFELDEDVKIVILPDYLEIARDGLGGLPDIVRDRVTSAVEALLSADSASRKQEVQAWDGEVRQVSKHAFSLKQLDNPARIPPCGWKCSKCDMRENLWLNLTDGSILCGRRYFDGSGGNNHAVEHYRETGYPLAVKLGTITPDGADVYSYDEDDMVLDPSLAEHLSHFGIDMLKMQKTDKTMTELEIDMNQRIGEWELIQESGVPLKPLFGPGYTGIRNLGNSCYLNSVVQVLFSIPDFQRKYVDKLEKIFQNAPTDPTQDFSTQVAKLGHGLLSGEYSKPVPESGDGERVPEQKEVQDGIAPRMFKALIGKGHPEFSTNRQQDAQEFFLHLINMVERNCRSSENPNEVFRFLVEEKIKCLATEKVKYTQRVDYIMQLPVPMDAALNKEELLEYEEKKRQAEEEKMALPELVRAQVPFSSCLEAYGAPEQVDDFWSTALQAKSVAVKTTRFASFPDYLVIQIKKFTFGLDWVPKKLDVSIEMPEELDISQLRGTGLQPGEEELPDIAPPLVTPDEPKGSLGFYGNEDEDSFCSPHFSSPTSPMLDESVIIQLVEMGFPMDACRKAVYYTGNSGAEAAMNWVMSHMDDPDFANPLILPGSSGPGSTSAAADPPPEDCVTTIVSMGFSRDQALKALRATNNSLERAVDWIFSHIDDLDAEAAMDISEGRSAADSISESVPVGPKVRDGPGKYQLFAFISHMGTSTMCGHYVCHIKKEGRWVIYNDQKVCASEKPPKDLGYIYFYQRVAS
# [7] = biological target: H1 (h) (Homo sapiens, UniProt P35367); assay: biochemical; conditions: read-out: % Inhibition of Specific Binding
# [8] = biological target: Ubiquitin carboxyl-terminal hydrolase 7 (Homo sapiens, UniProt Q93009); assay: biochemical; conditions: read-out: Percentage inhibition (%)
# Ubiquitin carboxyl-terminal hydrolase 7, sequence (Q93009 whole entry): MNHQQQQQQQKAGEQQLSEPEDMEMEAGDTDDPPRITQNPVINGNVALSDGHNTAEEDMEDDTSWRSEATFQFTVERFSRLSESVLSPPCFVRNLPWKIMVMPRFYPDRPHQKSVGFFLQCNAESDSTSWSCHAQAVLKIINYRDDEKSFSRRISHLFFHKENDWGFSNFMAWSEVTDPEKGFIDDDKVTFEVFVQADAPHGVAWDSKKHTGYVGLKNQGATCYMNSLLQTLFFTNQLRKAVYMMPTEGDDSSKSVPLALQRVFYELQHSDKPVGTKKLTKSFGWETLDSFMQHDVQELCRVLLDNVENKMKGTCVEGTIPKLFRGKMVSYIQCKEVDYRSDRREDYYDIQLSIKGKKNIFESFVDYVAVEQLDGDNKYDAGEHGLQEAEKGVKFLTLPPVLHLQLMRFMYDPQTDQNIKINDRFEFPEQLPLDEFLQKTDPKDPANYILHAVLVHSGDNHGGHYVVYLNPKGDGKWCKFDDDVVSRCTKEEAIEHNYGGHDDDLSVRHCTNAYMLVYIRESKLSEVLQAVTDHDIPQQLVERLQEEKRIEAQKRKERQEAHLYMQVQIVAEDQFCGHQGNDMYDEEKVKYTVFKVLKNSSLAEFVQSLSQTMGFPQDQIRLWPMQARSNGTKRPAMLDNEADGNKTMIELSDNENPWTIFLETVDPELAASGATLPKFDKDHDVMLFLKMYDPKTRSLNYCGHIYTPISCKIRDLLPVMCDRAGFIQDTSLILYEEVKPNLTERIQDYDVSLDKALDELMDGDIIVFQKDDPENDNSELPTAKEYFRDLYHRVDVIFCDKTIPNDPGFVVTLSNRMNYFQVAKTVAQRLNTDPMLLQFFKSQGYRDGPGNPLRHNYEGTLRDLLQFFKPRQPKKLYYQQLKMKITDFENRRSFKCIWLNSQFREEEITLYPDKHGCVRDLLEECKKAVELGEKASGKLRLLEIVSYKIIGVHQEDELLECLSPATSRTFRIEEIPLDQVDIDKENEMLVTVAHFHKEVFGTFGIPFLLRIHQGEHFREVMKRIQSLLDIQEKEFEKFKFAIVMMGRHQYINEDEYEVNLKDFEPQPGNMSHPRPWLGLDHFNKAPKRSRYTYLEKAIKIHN
# [9] = biological target: T2, Matrix metalloprotease 9 (mutant Q279R) (Homo sapiens, UniProt P14780, Q279R); assay: biochemical; conditions: read-out: Percentage inhibition (%)
# T2 sequence (P14780 94-707 Q279R): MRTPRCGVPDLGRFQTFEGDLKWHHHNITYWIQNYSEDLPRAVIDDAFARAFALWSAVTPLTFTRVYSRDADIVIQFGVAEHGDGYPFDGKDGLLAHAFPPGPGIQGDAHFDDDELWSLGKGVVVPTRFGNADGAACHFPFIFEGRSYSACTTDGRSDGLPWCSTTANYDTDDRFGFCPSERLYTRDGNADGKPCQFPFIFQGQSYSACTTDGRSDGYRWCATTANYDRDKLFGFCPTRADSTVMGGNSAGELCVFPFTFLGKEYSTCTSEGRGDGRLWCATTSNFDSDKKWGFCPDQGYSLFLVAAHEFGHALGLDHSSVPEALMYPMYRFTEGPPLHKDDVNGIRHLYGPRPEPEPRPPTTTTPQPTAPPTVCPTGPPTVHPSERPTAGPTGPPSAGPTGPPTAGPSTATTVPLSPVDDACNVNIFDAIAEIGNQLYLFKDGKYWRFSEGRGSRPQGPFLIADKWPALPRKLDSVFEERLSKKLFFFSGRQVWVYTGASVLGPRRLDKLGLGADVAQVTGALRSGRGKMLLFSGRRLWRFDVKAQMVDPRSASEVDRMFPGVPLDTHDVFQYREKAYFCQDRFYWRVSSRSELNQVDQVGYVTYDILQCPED
# [10] = biological target: T3, Renin (Homo sapiens, UniProt P00797); assay: biochemical; conditions: read-out: Percentage inhibition (%)
# T3 sequence (P00797 67-406): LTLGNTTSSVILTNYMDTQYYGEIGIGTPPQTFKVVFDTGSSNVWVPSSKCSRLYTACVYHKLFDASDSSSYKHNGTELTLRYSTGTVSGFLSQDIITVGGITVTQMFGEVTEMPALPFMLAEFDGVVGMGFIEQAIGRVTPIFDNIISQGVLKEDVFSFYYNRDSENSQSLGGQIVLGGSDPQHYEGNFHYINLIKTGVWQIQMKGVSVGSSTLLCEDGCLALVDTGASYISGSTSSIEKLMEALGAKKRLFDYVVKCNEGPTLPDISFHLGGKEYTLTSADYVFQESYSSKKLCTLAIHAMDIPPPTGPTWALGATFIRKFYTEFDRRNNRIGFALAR
# [11] = biological target: kappa (h) (KOP) (Homo sapiens, UniProt P41145); assay: biochemical; conditions: read-out: % Inhibition of Specific Binding
# kappa (h) (KOP), sequence (P41145 whole entry): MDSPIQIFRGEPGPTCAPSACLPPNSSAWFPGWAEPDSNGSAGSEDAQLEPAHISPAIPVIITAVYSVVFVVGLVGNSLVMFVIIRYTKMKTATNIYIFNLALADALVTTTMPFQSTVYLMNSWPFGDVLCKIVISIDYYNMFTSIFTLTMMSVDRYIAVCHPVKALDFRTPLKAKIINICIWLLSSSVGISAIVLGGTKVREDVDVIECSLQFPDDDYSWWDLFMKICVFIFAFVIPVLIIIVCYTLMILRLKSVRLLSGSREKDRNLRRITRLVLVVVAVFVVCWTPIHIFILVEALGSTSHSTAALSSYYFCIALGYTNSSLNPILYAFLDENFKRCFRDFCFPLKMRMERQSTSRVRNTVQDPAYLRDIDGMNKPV
# [12] = system: NMDA; conditions: 10 μM
# [13] = biological target: Lck kinase (h) (Homo sapiens, UniProt P06239); assay: biochemical; conditions: read-out: % Inhibition of Specific Binding
# Lck kinase (h), sequence (P06239 whole entry): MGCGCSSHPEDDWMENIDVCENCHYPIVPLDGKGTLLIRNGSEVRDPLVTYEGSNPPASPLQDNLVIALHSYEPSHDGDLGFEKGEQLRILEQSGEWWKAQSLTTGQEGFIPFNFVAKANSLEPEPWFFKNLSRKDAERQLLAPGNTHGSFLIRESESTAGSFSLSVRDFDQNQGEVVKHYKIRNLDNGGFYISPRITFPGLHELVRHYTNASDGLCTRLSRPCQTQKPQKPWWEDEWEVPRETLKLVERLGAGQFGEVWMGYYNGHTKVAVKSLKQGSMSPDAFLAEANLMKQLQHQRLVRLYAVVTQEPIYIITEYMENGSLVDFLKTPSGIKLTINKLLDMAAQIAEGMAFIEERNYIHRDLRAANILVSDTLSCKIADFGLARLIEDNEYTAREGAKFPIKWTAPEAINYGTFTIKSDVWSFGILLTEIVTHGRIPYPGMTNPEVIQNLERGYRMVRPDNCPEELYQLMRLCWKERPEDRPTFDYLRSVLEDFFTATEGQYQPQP
# [14] = system: KV channel; conditions: 10 μM
# [15] = biological target: 5-HT2B (h) (Homo sapiens, UniProt P41595); assay: biochemical; conditions: read-out: % Inhibition of Specific Binding
# [16] = biological target: V1a (h) (Homo sapiens, UniProt P37288); assay: biochemical; conditions: read-out: % Inhibition of Specific Binding
# V1a (h), sequence (P37288 whole entry): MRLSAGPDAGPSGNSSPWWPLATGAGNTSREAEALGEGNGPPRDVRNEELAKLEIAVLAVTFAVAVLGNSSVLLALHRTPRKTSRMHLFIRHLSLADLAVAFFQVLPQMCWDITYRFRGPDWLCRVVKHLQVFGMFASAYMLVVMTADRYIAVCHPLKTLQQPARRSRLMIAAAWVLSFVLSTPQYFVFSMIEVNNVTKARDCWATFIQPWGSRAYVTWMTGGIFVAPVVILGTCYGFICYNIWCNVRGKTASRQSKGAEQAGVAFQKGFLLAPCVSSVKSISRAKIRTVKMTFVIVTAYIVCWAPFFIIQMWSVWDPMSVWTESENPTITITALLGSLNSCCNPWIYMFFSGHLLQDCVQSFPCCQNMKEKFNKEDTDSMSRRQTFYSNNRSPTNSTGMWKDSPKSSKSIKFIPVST
# [17] = biological target: COX1(h) (Homo sapiens, UniProt P23219); assay: biochemical; conditions: read-out: % Inhibition of Specific Binding
# [18] = biological target: Ubiquitin carboxyl-terminal hydrolase 10 (Homo sapiens, UniProt Q14694); assay: biochemical; conditions: read-out: Percentage inhibition (%)
# Ubiquitin carboxyl-terminal hydrolase 10, sequence (Q14694 whole entry): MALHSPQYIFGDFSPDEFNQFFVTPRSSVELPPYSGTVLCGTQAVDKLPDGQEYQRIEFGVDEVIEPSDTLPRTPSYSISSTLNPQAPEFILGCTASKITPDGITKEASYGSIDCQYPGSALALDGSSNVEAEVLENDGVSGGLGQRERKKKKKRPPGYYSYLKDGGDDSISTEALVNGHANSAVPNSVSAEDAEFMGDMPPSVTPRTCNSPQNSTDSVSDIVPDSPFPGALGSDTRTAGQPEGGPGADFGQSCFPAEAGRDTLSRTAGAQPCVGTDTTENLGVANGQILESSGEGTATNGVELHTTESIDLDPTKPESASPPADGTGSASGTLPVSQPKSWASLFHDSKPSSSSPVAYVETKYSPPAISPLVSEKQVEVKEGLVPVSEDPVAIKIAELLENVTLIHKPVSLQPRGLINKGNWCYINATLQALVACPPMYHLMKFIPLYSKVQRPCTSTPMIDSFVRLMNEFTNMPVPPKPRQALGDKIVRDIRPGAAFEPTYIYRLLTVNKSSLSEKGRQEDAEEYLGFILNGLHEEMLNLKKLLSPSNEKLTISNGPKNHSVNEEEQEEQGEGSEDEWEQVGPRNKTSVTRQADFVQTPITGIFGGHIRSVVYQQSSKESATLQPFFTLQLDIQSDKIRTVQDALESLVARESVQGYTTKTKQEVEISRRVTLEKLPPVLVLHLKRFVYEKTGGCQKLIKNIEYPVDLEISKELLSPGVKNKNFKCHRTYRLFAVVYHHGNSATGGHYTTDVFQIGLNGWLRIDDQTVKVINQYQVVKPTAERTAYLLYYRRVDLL
compound,measurement,setting,value
"CCCCCC(=O)N[C@H]1CSCc2cc(CSCCNC(=O)CN3CCN(CC(=O)O)CCN(CC(=O)O)CCN(CC(=O)O)CC3)cc(c2)CSC[C@@H](C(=O)O)NC(=O)[C@H](Cc2ccccc2)NC(=O)[C@H](CCC(N)=O)NC(=O)[C@H]([C@@H](C)O)NC(=O)[C@@H]2CCCN2C(=O)[C@@H]2CCCN2C1=O [Compound 3BP-3554, Hex-[Cys(tMeBn(DOTA-AET))-Pro-Pro-Thr-Gln-Phe-Cys]-OH]",inhibition at 10 µM,[1],-5%
same,inhibition at 10 µM,[2],1%
same,inhibition at 10 µM,[3],-5%
same,inhibition at 10 µM,[4],8%
same,inhibition at 10 µM,[5],-5%
same,inhibition at 1 µM,[6],-4%
same,inhibition at 10 µM,[6],-2%
same,inhibition at 10 µM,[7],4%
same,inhibition at 1 µM,[8],1%
same,inhibition at 10 µM,[8],1%
same,inhibition at 1 µM,[9],3%
same,inhibition at 10 µM,[9],2%
same,inhibition at 1 µM,[10],0%
same,inhibition at 10 µM,[10],-1%
same,inhibition at 10 µM,[11],10%
same,% Inhibition of Specific Binding,[12],1%
same,inhibition at 10 µM,[13],-4%
same,% Inhibition of Specific Binding,[14],4%
same,inhibition at 10 µM,[15],3%
same,inhibition at 10 µM,[16],1%
same,inhibition at 10 µM,[17],8%
same,inhibition at 1 µM,[18],1%
same,inhibition at 10 µM,[18],-1%
"CCCCCC(=O)N[C@H]1CSCc2cc(cc(CN3CCN(C(=O)CN4CCN(CC(=O)O)CCN(CC(=O)O)CCN(CC(=O)O)CC4)CC3)c2)CSC[C@@H](C(=O)N[C@@H](CC(=O)O)C(N)=O)NC(=O)[C@H](Cc2ccccc2)NC(=O)[C@H](CCC(N)=O)NC(=O)[C@H]([C@@H](C)O)NC(=O)[C@@H]2CCCN2C(=O)[C@@H]2CCCN2C1=O [Compound 3BP-3407, Hex-[Cys(tMeBn(DOTA-PP))-Pro-Pro-Thr-Gln-Phe-Cys]-Asp-NH2] (Hexanoyl-CPPTQFCD-NH2; linker 1-7 via X1)",inhibition at 10 µM,[1],-8%
same,inhibition at 10 µM,[2],10%
same,inhibition at 10 µM,[3],2%
same,inhibition at 10 µM,[4],6%
same,inhibition at 10 µM,[5],-3%
same,inhibition at 1 µM,[6],3%
same,inhibition at 10 µM,[6],46%
same,inhibition at 10 µM,[7],11%
same,inhibition at 1 µM,[8],5%
same,inhibition at 10 µM,[8],5%
same,inhibition at 1 µM,[9],3%
same,inhibition at 10 µM,[9],2%
same,inhibition at 1 µM,[10],-1%
same,inhibition at 10 µM,[10],3%
same,inhibition at 10 µM,[11],7%
same,% Inhibition of Specific Binding,[12],9%
same,inhibition at 10 µM,[13],10%
same,% Inhibition of Specific Binding,[14],−5%
same,inhibition at 10 µM,[15],2%
same,inhibition at 10 µM,[16],16%
same,inhibition at 10 µM,[17],10%
same,inhibition at 1 µM,[18],-2%
same,inhibition at 10 µM,[18],5%

# From patent US12427210B2, “Compounds comprising a fibroblast activation protein ligand and use thereof” (priority 2019, dated 2025)
